The values that follow come from patent US8153807B2, “Inhibitors of 11-beta-hydroxysteroid dehydrogenase 1” (Eli Lilly and Company, priority 2006, dated 2012).

In one test the test system is cortisone conversion. As to the kind of experiment: Acute in vivo cortisone conversion assay. As to conditions: Mus musculus; male C57BL/6 mice, oral dose 10 mg/kg, cortisone challenge 16 hours post dose, serum cortisol; read-out: % Inhibition after 16 hours (dose of 10 (mg/kg)). How it is done: Acute In Vivo Cortisone Conversion Assay
In general, compounds are dosed orally into mice, the mice are challenged with a subcutaneous injection of cortisone at a set timepoint after compound injection, and the blood of each animal is collected some time later. Separated serum is then isolated and analyzed for levels of cortisone and cortisol by LC-MS/MS, followed by calculation of mean cortisol and percent inhibition of each dosing group. Specifically, male C57BL/6 mice are obtained from Harlan Sprague Dawley at average weight of 25 grams. Exact weights are taken upon arrival and the mice randomized into groups of similar weights. Compounds are prepared in 1% w-w HEC, 0.25% w-w polysorbate 80, 0.05% w-w Dow Corning antifoam #1510-US at various doses based on assumed average weight of 25 grams. Compounds are dosed orally, 200 μl per animal, followed by a subcutaneous dose, 200 μl per animal, of 30 mg/kg cortisone at 1 to 24 hours post compound dose. At 10 minutes post cortisone challenge, each animal is euthanized for 1 minute in a CO2 chamber, followed by blood collection via cardiac puncture into serum separator tubes. Once fully clotted, tubes are spun at 2500×g, 4° C. for 15 minutes, the serum transferred to wells of 96-well plates (Corning Inc, Costar #4410, cluster tubes, 1.2 ml, polypropylene), and the plates are frozen at −20° C. until analysis by LC-MS/MS. For analysis, serum samples are thawed and the proteins are precipitated by the addition of acetonitrile containing d4-cortisol internal standard. Samples are vortex mixed and centrifuged. The supernatant is removed and dried under a stream of warm nitrogen. Extracts are reconstituted in methanol/water (1:1) and injected onto the LC-MS/MS system. The levels of cortisone and cortisol are assayed by selective reaction monitoring mode following positive ACPI ionization on a triple quadrupole mass spectrophotometer.

The target in the next test is T1, 11-β-HSD1 (Homo sapiens, UniProt P28845).
T1 construct: assay medium containing 12 ng/mL hTNFα to induce expression of 11-β-HSD1; endogenous in cells; host or cells: primary human aortic smooth muscle cells (AoSMC), induced with hTNFα
T1 sequence (P28845 whole entry): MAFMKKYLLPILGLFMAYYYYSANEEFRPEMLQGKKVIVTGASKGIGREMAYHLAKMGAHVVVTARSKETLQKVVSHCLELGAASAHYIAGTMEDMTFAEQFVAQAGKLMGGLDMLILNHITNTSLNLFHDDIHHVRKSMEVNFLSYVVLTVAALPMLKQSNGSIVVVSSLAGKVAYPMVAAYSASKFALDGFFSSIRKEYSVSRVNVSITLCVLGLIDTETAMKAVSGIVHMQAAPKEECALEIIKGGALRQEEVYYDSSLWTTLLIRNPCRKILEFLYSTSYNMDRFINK
In words: Human aortic smooth muscle cell assay. To be noted: primary human AoSMC, hTNFα-induced 11-β-HSD1, cortisol immunoassay. The format is cell-based. How it is done:
Human Aortic Smooth Muscle Cell Assay
Primary human aortic smooth muscle cells (AoSMC) are cultured in 5% FBS growth medium to a passage number of 6, then pelleted by centrifugation and resuspended at a density of 9×10^4 cells/mL in 0.5% FBS assay medium containing 12 ng/mL hTNFα to induce expression of 11-β-HSD1. Cells are seeded into 96-well tissue culture assay plates at 100 μL/well (9×10^3 cells/well) and incubated for 48 hours at 37° C., 5% CO2. Following induction, cells are incubated for 4 hours at 37° C., 5% CO2 in assay medium containing test compounds then treated with 10 μL/well of 10 μM cortisone solubilized in assay medium, and incubated for 16 hours at 37° C., 5% CO2. Medium from each well is transferred to a plate for subsequent analysis of cortisol using a competitive fluorescence resonance time resolved immunoassay. In solution, an allophycocyanin (APC)-cortisol conjugate and free cortisol analyte compete for binding to a mouse anti-cortisol antibody/Europium (Eu)-anti mouse IgG complex. Higher levels of free cortisol result in diminishing energy transfer from the Europium-IgG to the APC-cortisol complex resulting in less APC fluorescence. Fluorescent intensities for Europium and APC are measured using a LJL Analyst AD. Europium and APC excitation is measured using 360 nm excitation and 615 nm and 650 nm emission filters respectively. Time resolved parameters for Europuium were 1000 μs integration time with a 200 μs delay. APC parameters are set at 150 μs integration time with a 50 μs delay. Fluorescent intensities measured for APC are modified by dividing by the Eu fluorescence (APC/Eu). This ratio is then used to determine the unknown cortisol concentration by interpolation using a cortisol standard curve fitted with a 4-parameter logistic equation. These concentrations are then used to determine compound activity by plotting concentration versus % inhibition, fitting with a 4-parameter curve and reporting the IC50.

For another test, the target named is T2, 11-βHSD2 enzyme (Homo sapiens, UniProt P80365).
T2 sequence (P80365 1-405): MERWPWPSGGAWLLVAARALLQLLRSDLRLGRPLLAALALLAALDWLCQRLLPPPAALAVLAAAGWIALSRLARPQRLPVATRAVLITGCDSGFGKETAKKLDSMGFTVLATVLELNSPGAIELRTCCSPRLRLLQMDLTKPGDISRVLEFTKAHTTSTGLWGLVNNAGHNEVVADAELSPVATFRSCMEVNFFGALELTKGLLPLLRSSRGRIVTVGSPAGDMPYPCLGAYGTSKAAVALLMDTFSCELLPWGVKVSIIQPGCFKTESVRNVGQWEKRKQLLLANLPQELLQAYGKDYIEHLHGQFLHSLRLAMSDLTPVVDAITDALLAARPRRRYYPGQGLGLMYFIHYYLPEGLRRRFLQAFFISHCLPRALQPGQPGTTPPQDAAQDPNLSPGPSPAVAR
As to the kind of experiment: Selectivity against 11-βHSD2 in an enzyme assay similar to the 11β-HSD type 1 enzyme assay. The format is biochemical. To be noted: 11-βHSD1 versus 11-βHSD2 enzyme. How it is done:
11β-HSD Type 1 Enzyme Assay
Human 11β-HSD type 1 activity is measured by assaying NADPH production by fluorescence assay. Solid compounds are dissolved in DMSO to a concentration of 10 mM. Twenty microliters of each are then transferred to a column of a 96-well polypropylene Nunc plate where they are further diluted 50-fold followed by subsequent two-fold titration, ten times across the plate with additional DMSO using a Tecan Genesis 200 automated system. Plates are then transferred to a Tecan Freedom 200 system with an attached Tecan Temo 96-well head and an Ultra 384 plate reader. Reagents are supplied in 96-well polypropylene Nunc plates and are dispensed individually into black 96-well Molecular Devices High Efficiency assay plates (40 μL/well capacity) in the following fashion: 9 μL/well of substrate (2.22 mM NADP, 55.5 μM Cortisol, 10 mM Tris, 0.25% Prionex, 0.1% Triton X100), 3 μL/well of water to compound wells or 3 μL to control and standard wells, 6 μL/well recombinant human 11β-HSD type 1 enzyme, 2 μL/well of compound dilutions. […] Plates are then shaken once more for 15 seconds then placed into an Ultra 384 microplate reader (355EX/460EM) for detection of NADPH fluorescence. […]

As for `O=C(c1ccc(-c2cc(Cl)c(C[C@@H]3CCN(N4CCOCC4)C3=O)c(Cl)c2)cc1)N1CCC(C(F)(F)F)CC1` [Example 3, (R)-3-[3,5-Dichloro-4′-(4-trifluoromethyl-piperidine-1-carbonyl)-biphenyl-4-ylmethyl]-1-morpholin-4-yl-pyrrolidin-2-one], the inhibition at 10 mg/kg in the test on cortisone conversion stood at 82%. Further, the IC50 against 11-β-HSD1 is 67 nM.
The corresponding values for `O=C1[C@H](Cc2c(Cl)cc(-c3ccc(F)cc3)cc2Cl)CCN1N1CCC(O)CC1` [Example 6, (R)-3-(3,5-Dichloro-4′-fluoro-biphenyl-4-ylmethyl)-1-(4-hydroxy-piperidin-1-yl)-pyrrolidin-2-one Trifluoro Acetate] are 55% and 5.7 nM.
As to `O=C(c1ccc(-c2cc(Cl)c(C[C@@H]3CCN(N4CCC(O)CC4)C3=O)c(Cl)c2)cc1)N1CCC(C(F)(F)F)CC1` [Example 7, (R)-3-[3,5-Dichloro-4′-(4-trifluoromethyl-piperidine-1-carbonyl)-biphenyl-4-ylmethyl]-1-(4-hydroxy-piperidin-1-yl)-pyrrolidin-2-one], at 11-βHSD2 enzyme, the “fold greater inhibition of 11-βHSD1 enzyme as compared to the inhibition of 11-βHSD2” value was 145 fold. Also, the inhibition at 10 mg/kg with cortisone conversion stood at 98%. Moreover, the IC50 on 11-β-HSD1 was 14.3 nM.
Take `O=C(c1ccc(-c2cc(Cl)c(C[C@@H]3CCN(N4CCC(O)CC4)C3=O)c(Cl)c2)cc1)N1CCC(F)(F)CC1` [Example 8, (R)-3-[3,5-Dichloro-4′-(4,4-difluoro-piperidine-1-carbonyl)-biphenyl-4-ylmethyl]-1-(4-hydroxy-piperidin-1-yl)-pyrrolidin-2-one]: in the test with cortisone conversion, the inhibition at 10 mg/kg was found to be 94%. On 11-β-HSD1, this compound came in with an IC50 of 43 nM.

As a reminder, the IC50 is the midpoint of a concentration-inhibition curve.
